Some test systems named below: A498 renal; SF-268 CNS; K-562 leukemia; SK-MEL-2 melanoma; M14 melanoma; HOP-92 NSCLC; SK-OV-3 ovarian; HOP-62 NSCLC; OVCAR-5 ovarian.
Test in all cases: NCI tumour cell line growth inhibition, 48 h

The record followed here is PubChem BioAssay (NCI).

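48-hour exposure; five concentrations; linearly interpolated endpoints. GI50 is the concentration that inhibits growth by half. Definition used: TGI = concentration required for complete inhibition of growth.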

With `Cc1nc(-c2cc3cc(Cl)ccc3oc2=O)cc2c1c(=O)oc1ccc(Cl)cc12`, the TGI with A498 renal, in the test with SF-268 CNS, in the test with K-562 leukemia, in the test with SK-MEL-2 melanoma, in the test with M14 melanoma and in the test on HOP-92 NSCLC was more than 100 µM in each case. Besides, the TGI with SK-OV-3 ovarian and in the test on HOP-62 NSCLC was more than 100 µM throughout.

In the case of `CCOC(=O)C1(C(F)(F)F)N=C(CC)OC(N2CCOCC2)=N1` (centres undefined), the TGI with SF-268 CNS, in the test with K-562 leukemia, in the test with SK-MEL-2 melanoma, in the test on M14 melanoma, in the test with HOP-92 NSCLC and in the test on OVCAR-5 ovarian was more than 100 µM each time. In the test on SK-OV-3 ovarian, this molecule returned a TGI of more than 100 µM.

On to `NS(=O)(=O)c1ccc(NNc2c3ccccc3nc3c(C(=O)Nc4ccc(S(=O)(=O)Nc5ncccn5)cc4)cccc23)cc1`, for which the TGI in the test on SF-268 CNS, in the test on K-562 leukemia, in the test on SK-MEL-2 melanoma, in the test on M14 melanoma, with HOP-92 NSCLC and in the test with OVCAR-5 ovarian was more than 25 µM each time. Moreover, the TGI in the test with SK-OV-3 ovarian and with HOP-62 NSCLC was more than 25 µM throughout.

As to `Cn1c2ccccc2n2c3ncccc3c(=S)c(C#N)c12`, the TGI in the test on A498 renal, with SF-268 CNS, in the test with K-562 leukemia, in the test with SK-MEL-2 melanoma, with M14 melanoma and in the test on OVCAR-5 ovarian was more than 100 µM throughout. Besides, the TGI in the test with SK-OV-3 ovarian and in the test on HOP-62 NSCLC was more than 100 µM each time.

For the molecule `CN(C)C(=S)Oc1ccc2ccc(=O)oc2c1`, the TGI with A498 renal, in the test on SF-268 CNS, with SK-MEL-2 melanoma, with M14 melanoma, in the test with HOP-92 NSCLC and in the test with OVCAR-5 ovarian was more than 100 µM throughout. Besides, the TGI in the test with SK-OV-3 ovarian and in the test with HOP-62 NSCLC was more than 100 µM throughout.

With `CC(=O)Nc1cc(Nc2cc(=O)[nH]c(=O)[nH]2)ccc1C`, the TGI in the test on A498 renal, with SF-268 CNS, with K-562 leukemia, in the test with M14 melanoma, with HOP-92 NSCLC and in the test with OVCAR-5 ovarian was more than 100 µM each time. For the same molecule, the TGI with HOP-62 NSCLC is more than 100 µM.

As to `Cc1ccc(-c2n[nH]c(=O)n2/N=C\c2ccccc2)cc1`, the TGI is more than 100 µM in the test with A498 renal; more than 89.1 µM in the test on SF-268 CNS; more than 100 µM in the test with K-562 leukemia; 99.8 µM in the test with SK-MEL-2 melanoma; more than 100 µM with M14 melanoma; 66.4 µM with HOP-92 NSCLC. Besides, the TGI with OVCAR-5 ovarian was more than 100 µM; with HOP-62 NSCLC, 62.1 µM.

Regarding `COc1c(C)c(C/C=C(\C)CC/C=C(\C)CCC=C(C)C)c(OC)c(OC)c1OC`, the TGI in the test on SF-268 CNS, in the test on K-562 leukemia, in the test on SK-MEL-2 melanoma, with M14 melanoma, in the test with HOP-92 NSCLC and in the test with OVCAR-5 ovarian was more than 100 µM throughout. The TGI in the test with SK-OV-3 ovarian and in the test on HOP-62 NSCLC was more than 100 µM throughout.

For `Nc1nc(Cl)cc(NCC2(O)CCCC2)n1`, the TGI with A498 renal, with SF-268 CNS, in the test with K-562 leukemia, in the test on SK-MEL-2 melanoma, in the test with HOP-92 NSCLC and in the test with OVCAR-5 ovarian was more than 100 µM throughout. In addition, the TGI in the test on SK-OV-3 ovarian and in the test with HOP-62 NSCLC was more than 100 µM each time.

As for `COc1ccccc1CNCCCCCCCCCCCCN1C(=O)c2ccc3c4c(ccc(c24)C1=O)C(=O)N(CCCCCCCCCCCCNCc1ccccc1OC)C3=O`, the GI50 in the test with A498 renal is 0.806 µM; in the test with SF-268 CNS it was more than 50 µM; in the test with SK-MEL-2 melanoma, 1.99 µM; in the test with OVCAR-5 ovarian, more than 50 µM; in the test with SK-OV-3 ovarian, more than 50 µM; in the test on HOP-62 NSCLC, 3.64 µM. Also, the TGI in the test on A498 renal is 1.8 µM; in the test with SF-268 CNS it was more than 50 µM; in the test with SK-MEL-2 melanoma it was more than 50 µM; in the test on OVCAR-5 ovarian it was more than 50 µM; in the test with SK-OV-3 ovarian, more than 50 µM; in the test with HOP-62 NSCLC, more than 50 µM.

On to `CC(=O)/C(=C\c1ccc(Cl)c(Cl)c1)C(=O)C(C)CN(C)C` (centres undefined), for which the TGI with A498 renal is 8.16 µM; in the test with SF-268 CNS it was 23.4 µM; in the test on M14 melanoma, 24.2 µM; with HOP-92 NSCLC it was 9.55 µM; in the test on OVCAR-5 ovarian it was 23.8 µM; with SK-OV-3 ovarian, 37.1 µM. In the test on HOP-62 NSCLC, this molecule displayed a TGI of 41.1 µM.

As to `CC1CC/C(=C\c2ccc(Cl)cc2)c2nc(N)c(C#N)c(-c3ccc(Cl)cc3)c21` (centres undefined), the TGI with A498 renal is 72.4 µM; in the test with K-562 leukemia, more than 100 µM; with SK-MEL-2 melanoma, more than 100 µM; in the test with M14 melanoma, more than 100 µM; with OVCAR-5 ovarian, more than 100 µM; in the test on SK-OV-3 ovarian it was more than 100 µM. In the test with HOP-62 NSCLC, this molecule yielded a TGI of more than 100 µM.

For `C/C(Nc1ccc(Cl)cc1Cl)=C1/CCOC1=O`, the TGI in the test with A498 renal was more than 100 µM; in the test on SF-268 CNS it was 92.8 µM; in the test on K-562 leukemia it was more than 100 µM; in the test on HOP-92 NSCLC, 51.8 µM; with HOP-62 NSCLC, 70.8 µM.

Take `C/C(=N\Nc1nc2ccccc2[nH]1)c1cc2ccccc2cn1`: the TGI was 0.665 µM with A498 renal; 1.02 µM in the test on SF-268 CNS; more than 100 µM with K-562 leukemia; 0.357 µM with M14 melanoma; 0.819 µM in the test on HOP-92 NSCLC; 2.5 µM in the test with OVCAR-5 ovarian. Moreover, the TGI with SK-OV-3 ovarian was 12.7 µM.

With `CCOC(=O)c1cn(C)c(=S)n2c1nc1ccccc12`, the TGI in the test with A498 renal, in the test with K-562 leukemia, in the test with SK-MEL-2 melanoma, in the test on M14 melanoma, with HOP-92 NSCLC and with OVCAR-5 ovarian was more than 100 µM in each case. This molecule came in with a TGI in the test on HOP-62 NSCLC of more than 100 µM.

With `COC(=O)C1=C(O)C(C(=O)OC)[C@]2(O)[C@H](C(=O)OC)[C@H]1C[C@@H](c1ccc([N+](=O)[O-])cc1)[C@H]2C(=O)OC` (some centres undefined), the TGI was 51.6 µM with SF-268 CNS; more than 100 µM in the test on K-562 leukemia; 46.6 µM in the test on SK-MEL-2 melanoma; 44.5 µM in the test on M14 melanoma; 65.9 µM with OVCAR-5 ovarian; more than 100 µM in the test on SK-OV-3 ovarian. The molecule further showed a TGI in the test on HOP-62 NSCLC of more than 100 µM.

Regarding `CSc1nc(NC(C)C)c2c(n1)Sc1nc3ccccc3n1C2O` (centres undefined), the TGI in the test on SF-268 CNS is more than 100 µM; with K-562 leukemia it was more than 100 µM; in the test on SK-MEL-2 melanoma it was 52 µM; in the test with M14 melanoma, more than 100 µM; in the test on HOP-92 NSCLC it was more than 100 µM; in the test with SK-OV-3 ovarian, more than 100 µM. The molecule also yielded a TGI with HOP-62 NSCLC of more than 100 µM.

Turning to `Cc1cc2cc3c(cc2c(-c2ccc(N)cc2)n1)OCO3`, the TGI was 79.3 µM in the test with SF-268 CNS; 92 µM in the test with K-562 leukemia; more than 100 µM with SK-MEL-2 melanoma; more than 100 µM in the test on M14 melanoma; 75.4 µM in the test on HOP-92 NSCLC; more than 100 µM in the test on OVCAR-5 ovarian. The TGI in the test on SK-OV-3 ovarian and in the test on HOP-62 NSCLC was more than 100 µM in each case.

In the case of `CCC(CC(C)C)Nc1ccc(NC(CC)CC(C)C)cc1` (centres undefined), the GI50 in the test with A498 renal is 23.8 µM; in the test with SF-268 CNS, 16 µM; in the test on K-562 leukemia, 10.7 µM; in the test with SK-MEL-2 melanoma, 12.9 µM; in the test with M14 melanoma, 16.8 µM; in the test with HOP-92 NSCLC, 10.7 µM. Further, the GI50 was 15.6 µM in the test on OVCAR-5 ovarian and 18.6 µM with HOP-62 NSCLC. In addition, the TGI was 95.8 µM in the test with A498 renal; 30.6 µM in the test with SF-268 CNS; 37.8 µM in the test with K-562 leukemia; 27.4 µM in the test with SK-MEL-2 melanoma; 34.7 µM in the test on M14 melanoma; 24.7 µM in the test with HOP-92 NSCLC. Further, the TGI came out at 29.1 µM in the test with OVCAR-5 ovarian and 33.3 µM with HOP-62 NSCLC.

As for `COC(=O)CCCC(=O)NC1=C(NCc2ccccc2)C(=O)c2ccccc2C1=O`, the TGI in the test on A498 renal, in the test on SF-268 CNS, in the test on K-562 leukemia, in the test with SK-MEL-2 melanoma, in the test with M14 melanoma and in the test on OVCAR-5 ovarian was more than 100 µM throughout. In the test with SK-OV-3 ovarian, this molecule had a TGI of more than 100 µM.

For the molecule `Nc1ncnc2c1ncn2Cc1cccc(CCl)c1`, the TGI in the test with A498 renal is 30 µM; in the test with SF-268 CNS it was 32.4 µM; in the test with K-562 leukemia, more than 100 µM; with SK-MEL-2 melanoma, 31.9 µM; with M14 melanoma, 29.7 µM; with HOP-92 NSCLC, 65.5 µM. The TGI with OVCAR-5 ovarian is 32.1 µM; in the test with HOP-62 NSCLC it was 30.5 µM.

For the molecule `CC(C)OC1OC(CO)C(O)CC1n1cc(F)c(=O)[nH]c1=O` (centres undefined), the TGI in the test with A498 renal is more than 100 µM; in the test on SF-268 CNS it was more than 100 µM; in the test with K-562 leukemia, 86.4 µM; in the test on SK-MEL-2 melanoma, more than 100 µM; with M14 melanoma, more than 100 µM; in the test with HOP-92 NSCLC, more than 100 µM. Moreover, in the test on OVCAR-5 ovarian, the TGI is more than 100 µM.

For the molecule `C=C(C)[C@@H]1CC[C@]2(C(=O)O)CC[C@]3(C)[C@H](CCC4[C@@]5(C)CC[C@H](C(=O)/C=C/c6ccc(O)c(O)c6)C(C)(C)[C@@H]5CC[C@]43C)[C@@H]12` (some centres undefined), the TGI in the test on SF-268 CNS is more than 100 µM; with K-562 leukemia it was more than 100 µM; in the test with SK-MEL-2 melanoma it was 38 µM; in the test on M14 melanoma, 14.7 µM; in the test with OVCAR-5 ovarian, 26.7 µM; with SK-OV-3 ovarian it was 19.4 µM. The same molecule displayed a TGI in the test on HOP-62 NSCLC of 17 µM.

Turning to `CC(C)(C)C1CC[C@H](O)[C@H]([C@H](O)CC2CC(=O)N(c3ccccc3)C(=O)C2)C1` (some centres undefined), the TGI in the test with A498 renal, in the test on SF-268 CNS, in the test with K-562 leukemia, with M14 melanoma, in the test with HOP-92 NSCLC and in the test on OVCAR-5 ovarian was more than 100 µM each time. The TGI in the test on HOP-62 NSCLC is more than 100 µM.
